Patent US20140162974A1, “METHODS FOR MODULATION OF PHOSPHORUS AND FGF23” (Luitpold Pharmaceuticals, Inc., priority 2012, published 2014)
“Also recorded” adds a separate entry of the source.

Key:
Assay type in all cases: in vivo, human
[1] = test system: hemoglobin, ferritin, TSAT, hepcidin; experiment: Example 3 trial: erythropoiesis and iron parameters; set-up: Mean increase in ferritin from baseline to highest value: unit not given here; settings: for Mean increase in hepcidin from baseline to highest value / effect of a single dose on hemoglobin and iron indices / proportion of group in which hemoglobin increased by 2.0 g/dL: in vivo; for Hemoglobin increase ≧2.0 g/dL, n (%): intention-to-treat in safety population, anytime to day 35; for Mean increase in ferritin from baseline to highest value / Mean increase in hemoglobin from baseline to highest value / Mean increase in transferrin saturation from baseline to highest value: mean ± standard error; for effect on TSAT and serum hepcidin levels: p≦0.001; for serum hepcidin levels by day 7: remained significantly elevated on day 35
Experimental: (§1) Study visits were on Days 0 (when iron was infused), 1 (24 hours after iron infusion), 7, 14, and 35. The primary objectives were to determine the effect of iron deficiency on cFGF23 and iFGF23 levels and the effect of intravenous iron on iFGF23 and cFGF23 levels.
(§2) Randomization occurred centrally via a fax-based system. […] The complete dose was infused over 15 minutes on day 0. […] An initial test dose of 25 mg was administered slowly over 5 minutes.
(§3) Laboratory testing of blood and three-hour urine collections was performed at the screening visit and on study days 0 (when iron was infused), 1 (24 hours after iron infusion), 7, 14, and 35 (see e.g., FIG. 2A). Any subject who experienced a reduction in serum phosphate below the normal range after day 0 underwent additional phosphate measurements at 14 day intervals following day 35 until the level returned to the normal reference range. Safety evaluations of all subjects included ascertainment of adverse events, physical examinations at all study visits, and laboratory assessments. Any subject who withdrew from the study received a follow-up phone call to ascertain adverse events 30 days after they received study drug.
(§4) The pre-specified primary endpoints were changes in blood and urine markers of phosphate and bone metabolism among the evaluable population, defined as those subjects with baseline and at least one post-randomization set of FGF23 and blood and urinary phosphate levels. Secondary endpoints included the proportion of subjects achieving a hemoglobin increase […] anytime between baseline and day 35, and the change from baseline to highest hemoglobin, ferritin, and TSAT anytime during the 35-day study period. Additional safety endpoints included incidence, severity, and seriousness of adverse events, and incidence of treatment-emergent abnormal clinical laboratory values in the safety population, defined as all subjects who received the study drug regardless of subsequent laboratory testing.
Blood and urine samples were sent to a central laboratory for analysis (Covance Central Laboratory Service, Indianapolis, Ind.). Hemoglobin, blood counts, iron indices, electrolytes, and serum and urinary phosphate and creatinine were measured with standard, automated, multi-analyte techniques. Urinary fractional excretion of phosphate (FEPi) was calculated from the three-hour, morning urine collections as urinary phosphate x serum creatinine/serum phosphate x urinary creatinine. Serum levels of 25-hydroxyvitamin D and 1,25-dihydroxyvitamin D were measured in duplicate by radioimmunoassay (DiaSorin, Stillwater, Minn.) with intra-assay coefficients of variation (CV)<11.6%. Plasma C-terminal FGF23 (cFGF23) was measured in duplicate in EDTA-plasma samples using a human FGF23 immunometric assay capable of detecting both the intact peptide and its C-terminal fragments (Immutopics, San Clemente, Ca) with intra-assay CV≦3.8%. Because cFGF23 testing was performed in parallel with rolling enrollment and follow-up, all cFGF23 assay plates tested combinations of baseline and post-intervention samples from multiple study participants. Serum intact FGF23 (iFGF23) was measured in batches of baseline and post-intervention samples from multiple study participants at study end using an immunometric assay that detects the intact peptide exclusively (Kyowa Medex Company, Shizuoka, Japan) with intra-assay CV<2.7%. Serum hepcidin levels were measured on days 0, 7, and 35 using an enzyme-linked immunosorbent assay (Intrinsic LifeSciences, La Jolla, Calif.) with intra-assay CV≦19%. Urinary amino acids, glucose, albumin, and beta 2 microglobulin were measured to test for the possibility of global proximal tubular dysfunction. Urinary deoxypyridinoline cross link, and serum osteocalcin and bone-specific alkaline phosphatase were measured to assess bone turnover. […]

[2] = test system: serum phosphate, urinary fractional excretion of phosphate; experiment: Example 3 trial: serum and urinary phosphate; settings: for mean urinary FEPi over time compared with baseline: by day 7 through day 35; for course of serum phosphate after day 1: through day 35
Experimental: as §1, §2, §3, §4
(§5) Blood and urine samples were sent to a central laboratory for analysis (Covance Central Laboratory Service, Indianapolis, Ind.). Hemoglobin, blood counts, iron indices, electrolytes, and serum and urinary phosphate and creatinine were measured with standard, automated, multi-analyte techniques. Urinary fractional excretion of phosphate (FEPi) was calculated from the three-hour, morning urine collections as urinary phosphate x serum creatinine/serum phosphate x urinary creatinine. Serum levels of 25-hydroxyvitamin D and 1,25-dihydroxyvitamin D were measured in duplicate by radioimmunoassay (DiaSorin, Stillwater, Minn.) with intra-assay coefficients of variation (CV)<11.6%. Plasma C-terminal FGF23 (cFGF23) was measured in duplicate in EDTA-plasma samples using a human FGF23 immunometric assay capable of detecting both the intact peptide and its C-terminal fragments (Immutopics, San Clemente, Ca) with intra-assay CV≦3.8%. Because cFGF23 testing was performed in parallel with rolling enrollment and follow-up, all cFGF23 assay plates tested combinations of baseline and post-intervention samples from multiple study participants. Serum intact FGF23 (iFGF23) was measured in batches of baseline and post-intervention samples from multiple study participants at study end using an immunometric assay that detects the intact peptide exclusively (Kyowa Medex Company, Shizuoka, Japan) with intra-assay CV<2.7%. Serum hepcidin levels were measured on days 0, 7, and 35 using an enzyme-linked immunosorbent assay (Intrinsic LifeSciences, La Jolla, Calif.) with intra-assay CV≦19%. Urinary amino acids, glucose, albumin, and beta 2 microglobulin were measured to test for the possibility of global proximal tubular dysfunction. Urinary deoxypyridinoline cross link, and serum osteocalcin and bone-specific alkaline phosphatase were measured to assess bone turnover.
Baseline characteristics are presented as mean±standard error for continuous variables and as proportions for categorical variables. […]

intact FGF23 (iFGF23) = experiment: Example 3 trial: serum intact FGF23; settings: for effect on iFGF23 levels: by day 1 (24 hours); for Intact FGF23, Day 1 / Intact FGF23, Day 7 / Intact FGF23, Day 14 / Intact FGF23, Day 35: mean ± standard error, unit from the 3rd table
Experimental: as §1, §2, §3, §5
Baseline characteristics are presented as mean±standard error for continuous variables and as proportions for categorical variables. The association between iron indices and baseline and change in FGF23 levels was assessed with Spearman correlations. Restricted maximum likelihood-based repeated measures analyses (linear mixed models) that considered the effects of treatment, visit, and treatment x time interaction, with baseline values treated as a fixed covariate were used for the primary analyses of mean changes from baseline in continuous markers of phosphate homeostasis. The models employed unstructured covariance structures without imputing missing values. All outcome variables that were not normally distributed were analyzed after natural log-transformation. […]

iron dextran [reference compound]
Mean increase in hepcidin from baseline to highest value [1]: 77.8 ng/mL | effect of a single dose on hemoglobin and iron indices [1]: significantly increase | proportion of group in which hemoglobin increased by 2.0 g/dL [1]: 53% | Hemoglobin increase ≧2.0 g/dL, n (%) [1]: 16 (53) n (%) | Mean increase in ferritin from baseline to highest value [1]: 189 ± 21 | Mean increase in hemoglobin from baseline to highest value [1]: 2.2 ± 0.2 g/dL | Mean increase in transferrin saturation from baseline to highest value [1]: 44 ± 3.0% | effect on TSAT and serum hepcidin levels [1]: increased TSAT and serum hepcidin levels significantly | serum hepcidin levels by day 7 [1]: significantly increased | mean urinary FEPi over time compared with baseline [2]: no significant change over time | mean urinary fractional excretion of phosphate (FEPi) on day 1 ([2]; in vivo): trended downwards | serum phosphate within 24 hours after iron administration ([2]; in vivo): increased modestly | course of serum phosphate after day 1 [2]: returned to near baseline levels by day 7 and remained stable for the remainder of the study | Intact FGF23, Change from baseline (intact FGF23 (iFGF23); Day 1): −13.4% | Intact FGF23, Change from baseline (intact FGF23 (iFGF23); Day 7): −4.4% | Intact FGF23, Change from baseline (intact FGF23 (iFGF23); Day 14): −1.3% | Intact FGF23, Change from baseline (intact FGF23 (iFGF23); Day 35): −9.3% | effect on iFGF23 levels (intact FGF23 (iFGF23)): no significant changes; also recorded: but not iron dextran induced a significant increase | Intact FGF23, Day 1 (intact FGF23 (iFGF23)): 24.6 ± 1.9 pg/mL | Intact FGF23, Day 7 (intact FGF23 (iFGF23)): 27.5 ± 1.7 pg/mL | Intact FGF23, Day 14 (intact FGF23 (iFGF23)): 28.4 ± 2.1 pg/mL | Intact FGF23, Day 35 (intact FGF23 (iFGF23)): 28.3 ± 1.7 pg/mL

polynuclear iron (III)-hydroxide 4(R)-(poly-(1→4)-O-α-glucopyranosyl)-oxy-2(R),3(S),5(R),6-tetrahydroxy-hexanoate [FCM]
absolute difference in proportion with hemoglobin increase, FCM vs iron dextran ([1]; 95% CI −23.2, 36.6%, p=0.79): 6.7% | Mean increase in hepcidin from baseline to highest value [1]: 33.4 ng/mL | effect of a single dose on hemoglobin and iron indices [1]: significantly increase | proportion of group in which hemoglobin increased by 2.0 g/dL [1]: 60% | Hemoglobin increase ≧2.0 g/dL, n (%) [1]: 15 (60) n (%) | Mean increase in ferritin from baseline to highest value [1]: 306 ± 41 | Mean increase in hemoglobin from baseline to highest value [1]: 2.0 ± 0.3 g/dL | Mean increase in transferrin saturation from baseline to highest value [1]: 68 ± 6.4% | effect on TSAT and serum hepcidin levels [1]: increased TSAT and serum hepcidin levels significantly | serum hepcidin levels by day 7 [1]: significantly increased | increase in serum ferritin by day 7 compared to iron dextran ([1]; thereafter levels similar): greater increase | day of nadir in serum phosphate ([2]; FCM subjects stratified by serum phosphate<2.0 mg/dL): 14 days | mean urinary FEPi over time compared with baseline [2]: increased significantly compared with baseline | decrease in serum phosphate by day 7 ([2]; evaluable population): 0.6 mg/dL | decrease in serum phosphate by day 14 ([2]; evaluable population): 0.7 mg/dL | mean urinary fractional excretion of phosphate (FEPi) on day 1 ([2]; in vivo): trended downwards | serum phosphate within 24 hours after iron administration ([2]; in vivo): increased modestly | subjects in whom serum phosphate decreased to <2.0 mg/dL ([2]; in vivo): 10 subjects | FEPi in FCM low phosphate subgroup vs the remaining ([2]; stratified analysis, peaked by day 14): increased to a significantly greater extent in the low phosphate subgroup | course of serum phosphate after day 1 [2]: returning towards normal by day 35; also recorded: transient and asymptomatic reductions | Intact FGF23, Change from baseline (intact FGF23 (iFGF23); Day 1): 128.0% | Intact FGF23, Change from baseline (intact FGF23 (iFGF23); Day 7): 91.8% | Intact FGF23, Change from baseline (intact FGF23 (iFGF23); Day 14): 59.1% | Intact FGF23, Change from baseline (intact FGF23 (iFGF23); Day 35): 2.0% | effect on iFGF23 levels (intact FGF23 (iFGF23)): increased significantly by day 1; also recorded: significant increase | Intact FGF23, Day 1 (intact FGF23 (iFGF23)): 65.2 ± 8.0 pg/mL | Intact FGF23, Day 7 (intact FGF23 (iFGF23)): 54.9 ± 18.0 pg/mL | Intact FGF23, Day 14 (intact FGF23 (iFGF23)): 45.8 ± 6.9 pg/mL | Intact FGF23, Day 35 (intact FGF23 (iFGF23)): 28.1 ± 2.9 pg/mL | iFGF23 in FCM subjects who developed serum phosphate<2.0 mg/dL vs the remaining (intact FGF23 (iFGF23); stratified analysis): greater iFGF23 by day 1 that persisted through day 14
